Series [1] deals with T1, TSHR (Homo sapiens, UniProt P16473). Kind of series: ELISA cAMP assay in HEK-EM293 cells expressing TSHR. Type of series: cell-based. The conditions noted are these: for fold more potent than the hit compound 1a: potency ratio versus 1a.
Series [2] concerns the target LHR (Homo sapiens, UniProt P22888). Kind of series: Selectivity test against LHR. The format is cell-based.
Series [3] addresses T2, FSHR (Homo sapiens, UniProt P23945).
T2 sequence (P23945 18-695): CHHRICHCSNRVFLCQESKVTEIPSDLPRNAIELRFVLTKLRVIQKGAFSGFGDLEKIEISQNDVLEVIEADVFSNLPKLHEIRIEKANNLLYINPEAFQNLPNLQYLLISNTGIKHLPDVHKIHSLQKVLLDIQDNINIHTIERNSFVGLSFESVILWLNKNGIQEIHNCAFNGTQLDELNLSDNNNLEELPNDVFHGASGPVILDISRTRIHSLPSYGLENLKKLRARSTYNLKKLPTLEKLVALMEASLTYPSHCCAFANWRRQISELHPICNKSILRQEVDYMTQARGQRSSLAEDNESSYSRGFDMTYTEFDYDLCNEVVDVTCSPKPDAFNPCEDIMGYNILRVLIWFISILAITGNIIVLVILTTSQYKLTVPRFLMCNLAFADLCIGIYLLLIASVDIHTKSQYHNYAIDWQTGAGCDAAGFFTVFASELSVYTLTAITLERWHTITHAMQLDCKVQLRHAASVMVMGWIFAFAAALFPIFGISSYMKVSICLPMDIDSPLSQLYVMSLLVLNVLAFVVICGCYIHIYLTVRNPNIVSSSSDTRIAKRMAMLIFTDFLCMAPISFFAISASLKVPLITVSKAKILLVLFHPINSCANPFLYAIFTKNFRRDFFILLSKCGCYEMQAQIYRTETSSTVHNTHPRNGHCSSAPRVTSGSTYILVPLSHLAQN
The series is described as follows: Selectivity test against FSHR. The format is cell-based.

Series [4] deals with T1, TSHR. The conditions noted are these: cited from earlier work.
For series [5] the following is noted: degradation at pH = 2; cited from earlier work.
For series [6], the system named is TSHR. The conditions noted are these: mice; cited from earlier work.

The values that follow come from article PMC3293179 (MedChemComm, 2011).

Chain of LHR (P22888 27-699): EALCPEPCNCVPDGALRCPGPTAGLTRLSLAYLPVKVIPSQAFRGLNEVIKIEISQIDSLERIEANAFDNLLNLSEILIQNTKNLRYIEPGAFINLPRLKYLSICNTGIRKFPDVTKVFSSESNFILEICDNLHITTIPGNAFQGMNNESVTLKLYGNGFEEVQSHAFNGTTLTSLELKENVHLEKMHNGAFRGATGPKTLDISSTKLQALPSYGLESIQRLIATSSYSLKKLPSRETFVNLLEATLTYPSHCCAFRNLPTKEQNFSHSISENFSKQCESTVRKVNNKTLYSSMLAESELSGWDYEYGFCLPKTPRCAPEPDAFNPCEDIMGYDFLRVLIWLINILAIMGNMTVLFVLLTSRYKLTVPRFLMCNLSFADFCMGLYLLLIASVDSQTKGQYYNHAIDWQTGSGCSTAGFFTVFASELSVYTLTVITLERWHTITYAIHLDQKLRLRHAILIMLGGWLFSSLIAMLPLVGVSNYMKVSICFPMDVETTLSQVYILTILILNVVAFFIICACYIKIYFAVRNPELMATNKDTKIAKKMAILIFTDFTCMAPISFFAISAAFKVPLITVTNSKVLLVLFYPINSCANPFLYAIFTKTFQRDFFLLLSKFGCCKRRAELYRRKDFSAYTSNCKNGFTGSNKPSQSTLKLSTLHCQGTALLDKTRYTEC
T1 sequence (P16473 21-764): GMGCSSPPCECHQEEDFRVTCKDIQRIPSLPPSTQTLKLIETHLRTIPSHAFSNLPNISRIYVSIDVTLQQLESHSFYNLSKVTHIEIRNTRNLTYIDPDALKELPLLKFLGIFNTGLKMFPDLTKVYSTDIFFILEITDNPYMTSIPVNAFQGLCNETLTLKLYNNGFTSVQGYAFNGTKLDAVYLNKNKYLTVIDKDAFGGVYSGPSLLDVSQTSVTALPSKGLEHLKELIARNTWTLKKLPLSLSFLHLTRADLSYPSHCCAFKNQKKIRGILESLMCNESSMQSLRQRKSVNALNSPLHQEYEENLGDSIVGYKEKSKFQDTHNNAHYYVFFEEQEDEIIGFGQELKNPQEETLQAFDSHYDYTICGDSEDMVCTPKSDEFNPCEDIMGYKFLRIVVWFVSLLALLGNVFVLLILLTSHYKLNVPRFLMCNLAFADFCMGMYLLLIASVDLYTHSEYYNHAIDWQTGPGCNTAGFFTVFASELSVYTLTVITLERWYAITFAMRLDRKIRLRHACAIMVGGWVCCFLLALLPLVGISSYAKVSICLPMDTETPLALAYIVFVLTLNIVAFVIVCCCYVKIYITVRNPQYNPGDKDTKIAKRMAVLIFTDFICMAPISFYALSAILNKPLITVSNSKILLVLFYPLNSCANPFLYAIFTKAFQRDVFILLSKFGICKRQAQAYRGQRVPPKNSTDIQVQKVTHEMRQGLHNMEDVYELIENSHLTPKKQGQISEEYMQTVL

For `COc1ccc(C2Nc3ccccc3C(=O)N2Cc2ccccc2)cc1CSc1ccc(NC(C)=O)cc1` (stereo not shown) [Compound 8a], the “fold more potent than the hit compound 1a” value in series [1] is reported as “at least 10 fold”.

In the case of `COc1ccc(C2Nc3ccccc3C(=O)N2Cc2ccccc2)cc1COc1ccc(NC(C)=O)cc1` (stereo not shown) [Compound 1g], the “fold more potent than the hit compound 1a” value in series [1] was 4 fold.

Turning to `COc1ccc(C2Nc3cccc(O)c3C(=O)N2Cc2ccccc2)cc1CSc1ccc(NC(C)=O)cc1` (stereo not shown) [Compound 8b], the “fold increase in potency” value in series [1] (Y oxygen replaced with sulfur (8b vs 1b, 8a vs 1g)) was no more than 5 fold. Moreover, in series [2], the “selectivity for TSHR over LHR” value is “maintain selectivity for TSHR over LHR and FSHR”. In addition, the “selectivity for TSHR over FSHR” value in series [3] is “maintain selectivity for TSHR over LHR and FSHR”.

As to `COc1ccc(-c2nc3cccc(O)c3c(=O)n2Cc2ccccc2)cc1COc1ccc(NC(C)=O)cc1` [Compound 9c], the “selectivity for TSHR over LHR” value in series [2] was “selective for TSHR over LHR and FSHR”. The “selectivity for TSHR over FSHR” value in series [3] was “selective for TSHR over LHR and FSHR”.

Regarding `COc1ccc(C2Nc3cccc(O)c3C(=O)N2Cc2ccccc2)cc1COc1ccc(NC(C)=O)cc1` (stereo not shown) [Compound 1b], the “TSHR agonism (type)” value in series [4] is on record as “full TSHR agonist”. In addition, the half-life in series [5] is recorded as 3 h. For the same molecule, in series [1] (HEK-EM293), the maximal response (Emax) turned out to be 100%. Besides, in series [1] (R2 OH versus H (1g) or F (1e)), the “fold improvement in potency” value is listed as 3 fold. Also, the “fold more potent than the hit compound 1a” value in series [1] is on record as “at least 10 fold”. Also, the in vivo efficacy result in series [6] was “in vivo efficacy in mice”.

`COc1ccc(C2Nc3ccccc3C(=O)N2CCc2ccccc2)cc1COc1ccc(NC(C)=O)cc1` (stereo not shown) [Compound 1m]: in series [1] (versus benzyl analogue 1g), the “fold reduction in potency” value is 2 fold.

Regarding `COc1ccc(C2Nc3ccccc3C(=O)N2Cc2ccco2)cc1COc1ccc(NC(C)=O)cc1` (stereo not shown) [Compound 1a], the LHR efficacy entry in series [2] is “no detectable”. Also, the FSHR efficacy entry in series [3] is “no detectable”.
